Values joined by “and” are separate entries in the source; they are usually repeats but may differ in a detail not shown here. Equal entries are not always repeated. Where two headings read alike, the source gives them in different places.
Legend:
[1] = target: yeast mitochondrial ATP synthase (Saccharomyces cerevisiae, UniProt P00854+P61829); assay: biochemical
[2] = patients treated with Sirturo; placebo 2.5%; cited from earlier work
[3] = target: T1, yeast F1Fo ATP synthase (Saccharomyces cerevisiae, UniProt P00854+P61829); assay: Single-particle cryo-EM of yeast F1Fo in nanodiscs with BDQ; format: binding
[4] = system: hERG channel; conditions: read-out: IC50 for hERG; cited from earlier work
[5] = system: yeast mitochondria; assay: Membrane potential of yeast mitochondria, fluorescence quenching of Rhodamine 123; format: biochemical, Saccharomyces cerevisiae; conditions: high concentrations
Experimental: The membrane potential was assessed by measuring fluorescence quenching of Rhodamine 123 at 488 nm excitation and 525 nm emission in a buffer containing 0.65 M mannitol, 20 mM bis-tris-propane, 2 mM tris-phosphate, 0.3 mM EGTA, pH 6.8 with Rhodamine 123 dissolved in methanol (1.0 µM). Yeast mitochondria were energized with ethanol (0.4% v/v), whereas human mitochondria were energized with glutamate/malate (5 mM/2.5 mM).

[6] = system: MCF7 breast cancer cells; conditions: read-out: IC50, mitochondrial oxygen consumption / cell growth; cited from earlier work
[7] = target: T1, yeast F1Fo ATP synthase; assay: biochemical
[8] = target: yeast mitochondrial ATP synthase (yeast SMP) (Saccharomyces cerevisiae, UniProt P00854+P61829); assay: biochemical; conditions: for ATP hydrolysis activity, Exp 1-3: SMP data
[9] = 3rd exp (2-1-19), Bedaquiline 0.1 μM, frozen yeast mito, 60 min
[10] = 3rd exp (2-1-19), Bedaquiline 0.5 μM, frozen yeast mito, 60 min
[11] = 3rd exp (2-1-19), Bedaquiline 1 μM, frozen yeast mito, 60 min
[12] = 3rd exp (2-1-19), Bedaquiline 1.4 μM, frozen yeast mito, 60 min
[13] = 3rd exp (2-1-19), Bedaquiline 2 μM, frozen yeast mito, 60 min
[14] = 3rd exp (2-1-19), Bedaquiline 4 μM, frozen yeast mito, 60 min
[15] = 3rd exp (2-1-19), Bedaquiline 6 μM, frozen yeast mito, 60 min
[16] = right-hand regression, fits the SMP data

With COc1nc2ccc(Br)cc2cc1[C@@H](c1ccccc1)[C@@](O)(CCN(C)C)c1cccc2ccccc12 [BDQ, Bedaquiline] the activity at 0.1 µM [1, 9] was 97.3%, the inhibition at 0.1 µM [1, 9] was 2.68% and the “Cyanide sensitive ATP synthesis” value [1, 10] was 38.5022 nmol/min/mg. The activity at 0.5 µM [1, 10] was 69.8%, the inhibition at 0.5 µM [1, 10] was 30.2% and the “Cyanide sensitive ATP synthesis” value [1, 11] was 33.4087 nmol/min/mg. The activity at 1 µM [1, 11] was 60.6%, the inhibition at 1 µM ([1]; 3rd exp (2-1-19), Bedaquiline 1 μM, frozen yeast mito, 60 min, read-out: % inhibition) was 39.4% and the “Cyanide sensitive ATP synthesis” value [1, 12] was 18.8899 nmol/min/mg. The activity at 1.4 µM [1, 12] was 34.2%, the inhibition at 1.4 µM [1, 12] was 65.8% and the “Cyanide sensitive ATP synthesis” value [1, 13] was 16.8178 nmol/min/mg. For the same compound, the activity at 2 µM [1, 13] was 30.5%, the inhibition at 2 µM [1, 13] was 69.5% and the “Cyanide sensitive ATP synthesis” value [1, 14] was 2.063 nmol/min/mg. For the same compound, the activity at 4 µM [1, 14] was 3.74%, the inhibition at 4 µM [1, 14] was 96.3% and the activity at 6 µM [1, 15] was 1.81%. For the same compound, the inhibition at 6 µM [1, 15] was 98.2%, the IC50 ([1]; IC50 ± SEM, ATP synthesis, yeast mitochondria) was 1.1 µM and ~1.1 µM and the risk of death [2] was 11.4%. For the same compound, the “binding to F1 by cryo-EM density” value ([3]; F1Fo map 3.9 Å) was “not bound to F1”, the “binding site by cryo-EM density” value ([3]; Fo map 4.2 Å) was “at the interface between the a- and c-subunits” and the IC50 [4] was roughly 1.7 µM. For the same compound, the “effect on membrane potential, yeast mitochondria” value [5] was “partial effect”, the IC50 [6] was roughly 1 µM and the “Hillslope, four parameter logistic fit” value ([7]; BDQ, F1Fo in bicelles) was -1.0426. The “max, four parameter logistic fit” value ([7]; BDQ, F1Fo in bicelles, […]) was 1.167, the “min, four parameter logistic fit” value ([7]; BDQ, F1Fo in bicelles, […]) was 0.2116 and the EC50 ([7]; BDQ, F1Fo in bicelles, x in µM BDQ, read-out: EC50, four parameter logistic fit (coefficient) (converted)) was 0.0272 µM. The “ATP hydrolysis activity (ΔA340nm), Exp 1-3” value ([7]; F1Fo in bicelles, BDQ 0.0246 uM) was 0.6436 and 0.6522 and 0.6471, the “ATP hydrolysis activity (ΔA340nm), Exp 1-3” value ([7]; F1Fo in bicelles, BDQ 0.0372 uM) was 0.615 and 0.6977 and 0.5128 and the “ATP hydrolysis activity (ΔA340nm), Exp 1-3” value ([7]; F1Fo in bicelles, BDQ 0.0744 uM) was 0.5405 and 0.4979 and 0.4346. The “ATP hydrolysis activity (ΔA340nm), Exp 1-3” value ([7]; F1Fo in bicelles, BDQ 0.25 uM) was 0.379 and 0.272 and 0.2957, the “ATP hydrolysis activity (ΔA340nm), Exp 1-3” value ([7]; F1Fo in bicelles, BDQ 0.37 uM) was 0.3688 and 0.2428 and 0.2764 and the “ATP hydrolysis activity (ΔA340nm), Exp 1-3” value ([7]; F1Fo in bicelles, BDQ 0.74 uM) was 0.2533 and 0.2466 and 0.2454. The “ATP hydrolysis activity (ΔA340nm), Exp 1-3” value ([7]; F1Fo in bicelles, BDQ 1.49 uM) was 0.2105 and 0.2204 and 0.2061, the “ATP hydrolysis activity (ΔA340nm), Exp 1-3” value ([7]; F1Fo in bicelles, BDQ 3.72 uM) was 0.2216 and 0.2051 and 0.1755 and the “ATP hydrolysis activity (ΔA340nm), Exp 1-3” value ([7]; F1Fo in bicelles, BDQ 7.44 uM) was 0.2035 and 0.2344 and 0.1804. For the same compound, the “ATP hydrolysis activity (ΔA340nm), Exp 1-3” value ([7]; F1Fo in bicelles, BDQ 18.61 uM) was 0.2777 and 0.1895 and 0.1989, the “ATP hydrolysis activity (ΔA340nm), Exp 1-3” value ([7]; F1Fo in bicelles, BDQ 37.22 uM) was 0.2178 and 0.2279 and 0.1889 and the “ATP hydrolysis activity (ΔA340nm), Exp 1-3” value ([7]; F1Fo in bicelles, BDQ 52.11 uM) was 0.1835 and 0.2422 and 0.1841. For the same compound, the “ATP hydrolysis activity (ΔA340nm), Exp 1-3” value ([7]; F1Fo in bicelles, BDQ 74.45 uM) was 0.1959 and 0.193 and 0.2223, the “inhibition of ATP hydrolysis by yeast F1Fo (extent)” value ([7]; F1Fo in bicelles, maximal) was roughly 85% and the IC50 ([7]; F1Fo in bicelles, n = 3, read-out: IC50 ± SEM, ATP hydrolysis, purified yeast F1Fo) was 0.027 ± 0.0025 µM. For the same compound, the IC50 ([7]; F1Fo in bicelles, read-out: IC50, ATP hydrolysis, purified yeast F1Fo) was roughly 0.025 µM, the EC50 ([7]; reconstituted in bicelles, n = 3, read-out: EC50, inhibition of the ATPase activity of purified yeast ATP synthase) was 0.027 ± 0.0025 µM and the EC50 [8] was 1.28 µM. For the same compound, the IC50 ([8]; IC50 ± SEM, ATP hydrolysis, yeast SMP) was 1.28 ± 0.25 µM, the “ATP hydrolysis activity, Exp 1-3” value ([8]; BDQ 0.0372 uM) was 0.9086 and 0.8616 and 0.8497 and the “ATP hydrolysis activity, Exp 1-3” value ([8]; BDQ 0.0744 uM) was 0.9524 and 0.7514 and 0.8742. The “ATP hydrolysis activity, Exp 1-3” value ([8]; BDQ 0.3722 uM) was 0.7241 and 0.758 and 0.7412, the “ATP hydrolysis activity, Exp 1-3” value ([8]; BDQ 0.7445 uM) was 0.71 and 0.6674 and 0.5944 and the “ATP hydrolysis activity, Exp 1-3” value ([8]; BDQ 1.489 uM) was 0.489 and 0.4879 and 0.5368. The “ATP hydrolysis activity, Exp 1-3” value ([8]; BDQ 3.7225 uM) was 0.2859 and 0.2741 and 0.3273, the “ATP hydrolysis activity, Exp 1-3” value ([8]; BDQ 7.4449 uM) was 0.2679 and 0.4735 and 0.3345 and the “ATP hydrolysis activity, Exp 1-3” value ([8]; BDQ 18.6123 uM) was 0.1786 and 0.215 and 0.285. For the same compound, the “ATP hydrolysis activity, Exp 1-3” value ([8]; BDQ 37.2245 uM) was 0.1804 and 0.145 and 0.1981, the “Hillslope, four parameter logistic fit, second regression” value [8, 16] was -1.0668 and the “max, four parameter logistic fit, second regression” value [8, 16] was 0.8923. The “min, four parameter logistic fit, second regression” value [8, 16] was 0.1853.

From paper PMC7438494 (Communications Biology, 2020)
